Experimental data as given in patent EP0726261A1, “Herbidical 1,2,4 thiadiazoles” (American Cyanamid Company, priority 1995, dated 1996).

Legend:
Type in all cases: in vivo
[1] = system: Setaria viridis; experiment: Preemergence herbicidal activity (Example 67); conditions: pre, 800 g/ha
In short: (§1)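 Test solutions in acetone with 0.5% TRITON X-155, diluted with water, sprayed at 800g/ha (400 L/ha) onto the soil surface of seeded cups. Cups kept under greenhouse conditions and rated on a standard scale about 1-3 weeks after treatment.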

[2] = system: Hordeum vulgare; experiment: Preemergence herbicidal activity (Example 67); conditions: pre, 800 g/ha
In short: as §1

[3] = system: Zea mays; experiment: Postemergence herbicidal activity (Example 67); conditions: pos, 800 g/ha
In short: (§2)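 Seedlings aged 3–6 weeks received a postemergence spray of compound in acetone with 0.5% Triton X-155, diluted in water, at 800 g/ha in 400 L/ha. Plants were then kept in the greenhouse and rated 10–21 days after treatment.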

[4] = system: Amaranthus retroflexus; experiment: Postemergence herbicidal activity (Example 67); conditions: pos, 800 g/ha
In short: as §2

[5] = system: Ipomoea hederacea; experiment: Postemergence herbicidal activity (Example 67); conditions: pos, 800 g/ha
In short: as §2

[6] = system: Veronica persica; experiment: Postemergence herbicidal activity (Example 67); conditions: pos, 800 g/ha
In short: as §2

[7] = system: Abutilon theophrasti; experiment: Postemergence herbicidal activity (Example 67); conditions: pos, 800 g/ha
In short: as §2

[8] = system: Setaria viridis; experiment: Postemergence herbicidal activity (Example 67); conditions: pos, 800 g/ha
In short: as §2

[9] = system: Galium aparine; experiment: Postemergence herbicidal activity (Example 67); conditions: pos, 800 g/ha
In short: as §2

[10] = system: Helianthus annuus; experiment: Postemergence herbicidal activity (Example 67); conditions: pos, 800 g/ha
In short: as §2

[11] = system: Hordeum vulgare; experiment: Postemergence herbicidal activity (Example 67); conditions: pos, 800 g/ha
In short: as §2

[12] = system: Chenopodium album; experiment: Postemergence herbicidal activity (Example 67); conditions: pos, 800 g/ha
In short: as §2

[13] = system: Triticum aestivum; experiment: Postemergence herbicidal activity (Example 67); conditions: pos, 800 g/ha
In short: as §2

[14] = system: Alopecurus myosuroides; experiment: Postemergence herbicidal activity (Example 67); conditions: pos, 800 g/ha
In short: as §2

[15] = system: Alopecurus myosuroides; experiment: Preemergence herbicidal activity (Example 67); conditions: pre, 800 g/ha
In short: as §1

[16] = system: Triticum aestivum; experiment: Preemergence herbicidal activity (Example 67); conditions: pre, 800 g/ha
In short: as §1

[17] = system: Zea mays; experiment: Preemergence herbicidal activity (Example 67); conditions: pre, 800 g/ha
In short: as §1

[18] = system: Amaranthus retroflexus; experiment: Preemergence herbicidal activity (Example 67); conditions: pre, 800 g/ha
In short: as §1

[19] = system: Ipomoea hederacea; experiment: Preemergence herbicidal activity (Example 67); conditions: pre, 800 g/ha
In short: as §1

[20] = system: Veronica persica; experiment: Preemergence herbicidal activity (Example 67); conditions: pre, 800 g/ha
In short: as §1

[21] = system: Abutilon theophrasti; experiment: Preemergence herbicidal activity (Example 67); conditions: pre, 800 g/ha
In short: as §1

[22] = system: Galium aparine; experiment: Preemergence herbicidal activity (Example 67); conditions: pre, 800 g/ha
In short: as §1

[23] = system: Helianthus annuus; experiment: Preemergence herbicidal activity (Example 67); conditions: pre, 800 g/ha
In short: as §1

[24] = system: Chenopodium album; experiment: Preemergence herbicidal activity (Example 67); conditions: pre, 800 g/ha
In short: as §1

SMILES	SET VI rating [1]	HOR VW rating [2]	ZEA MX rating [3]	AMA RE rating [4]	IPO HE rating [5]	VER PE rating [6]	ABU TH rating [7]	SET VI rating [8]	GAL AP rating [9]	HEL AN rating [10]	HOR VW rating [11]	CHE AL rating [12]	TRZ AW rating [13]	ALO MY rating [14]	ALO MY rating [15]	TRZ AW rating [16]	ZEA MX rating [17]	AMA RE rating [18]	IPO HE rating [19]	VER PE rating [20]	other results
C[C@H](NC(=O)c1nc(-c2cccc(F)c2)ns1)c1ccccc1 [Example 45, (S)-3-(3-Fluorophenyl)-[1,2,4]thiadiazole-5-carboxylic acid, 1-(phenylethyl)amide]	0	0	4 (30-44%)	3 (16-29%)	8 (91-99%)	7 (80-90%)	8 (91-99%)	6 (65-79%)	6 (65-79%)	8 (91-99%)	4 (30-44%)	4 (30-44%)	3 (16-29%)	4 (30-44%)	3 (16-29%)	0	0	0	0	8 (91-99%)	ABU TH rating [21]: 0; GAL AP rating [22]: 0; HEL AN rating [23]: 0; CHE AL rating [24]: 0
C[C@H](NC(=O)c1nc(-c2cccc(Cl)n2)ns1)c1ccccc1 [Example 46, (S)-3-(6-Chloro-2-pyridyl)-[1,2,4]thiadiazole-5-carboxylic acid, 1-(phenylethyl)amide]	0	0	5 (45-64%)	3 (16-29%)	8 (91-99%)	8 (91-99%)	8 (91-99%)	8 (91-99%)	5 (45-64%)	8 (91-99%)	6 (65-79%)	6 (65-79%)	5 (45-64%)	6 (65-79%)	0	1 (1-5%)	0	5 (45-64%)	0	5 (45-64%)	ABU TH rating [21]: 0; GAL AP rating [22]: 0; HEL AN rating [23]: 0; CHE AL rating [24]: 4 (30-44%)
C[C@H](NC(=O)c1nsc(-c2ccccc2)n1)c1ccccc1 [Example 48, (S)-5-(Phenyl)-[1,2,4]thiadiazole-3-carboxylic acid, 1-(phenylethyl)amide]	0	0	5 (45-64%)	7 (80-90%)	7 (80-90%)	8 (91-99%)	8 (91-99%)	8 (91-99%)	7 (80-90%)	9 (100% effect)	7 (80-90%)	7 (80-90%)	5 (45-64%)	6 (65-79%)	0	2 (6-15%)	0	5 (45-64%)	0	5 (45-64%)	ABU TH rating [21]: 0; GAL AP rating [22]: 0; HEL AN rating [23]: 0; CHE AL rating [24]: 0
O=C(NCc1cccs1)c1nsc(-c2ccccc2)n1 [Example 49]	0	0	4 (30-44%)	3 (16-29%)	3 (16-29%)	3 (16-29%)	4 (30-44%)	8 (91-99%)	6 (65-79%)	8 (91-99%)	4 (30-44%)	4 (30-44%)	3 (16-29%)	5 (45-64%)	0	0	0	0	0	0	ABU TH rating [21]: 0; GAL AP rating [22]: 0; HEL AN rating [23]: 1 (1-5%); CHE AL rating [24]: 0
O=C(NCc1cccs1)c1nc(-c2ccccc2F)ns1 [Example 50]	0	1 (1-5%)	0	0	0	0	0	5 (45-64%)	2 (6-15%)	3 (16-29%)	2 (6-15%)	3 (16-29%)	1 (1-5%)	0	3 (16-29%)	0	0	0	0	0	ABU TH rating [21]: 0; GAL AP rating [22]: 0; HEL AN rating [23]: 0; CHE AL rating [24]: 0
COc1ccc(-c2nsc(C(=O)Nc3cccc4c3CCCC4)n2)cc1 [Example 55]	0	0	3 (16-29%)	0	0	0	0	4 (30-44%)	3 (16-29%)	2 (6-15%)	2 (6-15%)	0	1 (1-5%)	0	0	0	0	0	3 (16-29%)	2 (6-15%)	ABU TH rating [21]: 1 (1-5%); GAL AP rating [22]: 0; HEL AN rating [23]: 0; CHE AL rating [24]: 0
C[C@H](NC(=O)c1nsc(-c2ccccc2F)n1)c1ccccc1 [Example 56, (S)-5-(2-Fluorophenyl)-[1,2,4]thiadiazole-3-carboxylic acid, 1-(phenylethyl)amide]	2 (6-15%)	0	4 (30-44%)	7 (80-90%)	8 (91-99%)	7 (80-90%)	9 (100% effect)	8 (91-99%)	6 (65-79%)	8 (91-99%)	5 (45-64%)	4 (30-44%)	5 (45-64%)	5 (45-64%)	0	0	0	5 (45-64%)	3 (16-29%)	4 (30-44%)	ABU TH rating [21]: 2 (6-15%); GAL AP rating [22]: 0; HEL AN rating [23]: 0; CHE AL rating [24]: 2 (6-15%)
O=C(Nc1ccc(F)cc1F)c1nsc(-c2cccc(C(F)(F)F)c2)n1 [Example 62]	0	0	1 (1-5%)	0	1 (1-5%)	0	0	5 (45-64%)	0	0	0	1 (1-5%)	1 (1-5%)	0	3 (16-29%)	0	0	0	3 (16-29%)	0	ABU TH rating [21]: 1 (1-5%); GAL AP rating [22]: 0; HEL AN rating [23]: 0; CHE AL rating [24]: 0
O=C(Nc1ccc(F)cc1)c1nsc(-c2cccc(C(F)(F)F)c2)n1 [Example 63]	2 (6-15%)	0	0	0	0	0	1 (1-5%)	3 (16-29%)	0	0	1 (1-5%)	0	0	0	4 (30-44%)	2 (6-15%)	0	0	3 (16-29%)	0	ABU TH rating [21]: 0; GAL AP rating [22]: 0; HEL AN rating [23]: 0; CHE AL rating [24]: 0
